A word on the IC50: it is the concentration that gives 50% inhibition. Higher therefore signals a need for much substance.

The test system of experiment [1] is Trypanosoma brucei rhodesiense. Put plainly: Antitrypanosomal activity against Trypanosoma brucei rhodesiense STIB 900 after 72 hrs by microplate alamar blue assay. Particulars: STIB 900, 72 h. In kind it is functional, organism-based. (Resazurin is reduced to fluorescent resorufin, in cell work by metabolically active cells.)
A short description of experiment [2]: Selectivity index, Ratio of IC50 for L6 cells to IC50 for Plasmodium falciparum K1. In kind it is functional.
The test system of another experiment is L6. Kind of experiment: Cytotoxicity against rat L6 cells after 72 hrs by microplate alamar blue assay. The class given is cell-based. Particulars: L6, 72 h.
For another experiment, the system named is Plasmodium falciparum. Put plainly: Antiplasmodial activity against chloroquine and pyrimethamine-resistant Plasmodium falciparum K1 after 48 hrs. The class given is functional, organism-based. The conditions noted are these: K1, 48 h.
Experiment [3] is described as follows: Selectivity index, Ratio of IC50 for L6 cells to IC50 for Trypanosoma brucei rhodesiense STIB 9. In kind it is functional.

In experiment [1], `CN(C)C12CCNC([C@H](c3ccccc3)C1)[C@H](c1ccccc1)C2` yielded an IC50 of 600 nM.

Turning to `CCOC(=O)CN1CCC2(N(C)C)CC(c3ccc(Cl)cc3)C1C(c1ccc(Cl)cc1)C2` (racemic), the IC50 amounted to 1780 nM in experiment [1], 5120 nM in the experiment on L6 and 700 nM in the experiment on Plasmodium falciparum. In addition, the “Ratio IC50” value in experiment [2] is recorded as 7.31; in experiment [3], 2.88.

Regarding `CN(C)C12CCNC(C(c3ccc(C(F)(F)F)cc3)C1)C(c1ccc(C(F)(F)F)cc1)C2` (racemic), the IC50 in experiment [1] was 80 nM; in the experiment with L6, 9440 nM; with Plasmodium falciparum it was 850 nM. The “Ratio IC50” value in experiment [2] was 11.11; in experiment [3], 118.

Regarding `CN(C)C12CCNC(C(c3ccc(Br)cc3)C1)C(c1ccc(Br)cc1)C2` (racemic), the IC50 was found to be 87 nM in experiment [1], 9030 nM in the experiment with L6 and 340 nM in the experiment on Plasmodium falciparum. In addition, the “Ratio IC50” value in experiment [2] was 26.56; in experiment [3] it was 103.9.

Regarding `COc1ccc(C2CC3(N(C)C)CCNC2C(c2ccc(OC)cc2)C3)cc1` (racemic), the IC50 stood at 670 nM in experiment [1], 117000 nM in the experiment on L6 and 2690 nM in the experiment on Plasmodium falciparum. The “Ratio IC50” value in experiment [2] was found to be 43.52; in experiment [3], 174.7.

For `NCCN1CCC2(N3CCCCC3)CC(c3ccc(Cl)cc3)C1C(c1ccc(Cl)cc1)C2` (racemic), the IC50 in experiment [1] turned out to be 76 nM; in the experiment with L6, 3370 nM; in the experiment with Plasmodium falciparum it was 150 nM. The “Ratio IC50” value was determined as 22.47 in experiment [2] and 44.34 in experiment [3].

On to `CN(C)C12CCN(CC(N)=O)C(C(c3ccc(Cl)cc3)C1)C(c1ccc(Cl)cc1)C2` (racemic), for which the IC50 stood at 910 nM in experiment [1], 25500 nM in the experiment with L6 and 1110 nM in the experiment with Plasmodium falciparum. For the same compound, the “Ratio IC50” value is given as 23.01 in experiment [2] and 28.07 in experiment [3].

For `Clc1ccc(C2CC3(N4CCCC4)CCNC2C(c2ccc(Cl)c(Cl)c2)C3)cc1Cl` (racemic), the IC50 was 150 nM in experiment [1], 6870 nM in the experiment with L6 and 280 nM in the experiment on Plasmodium falciparum. For the same compound, the “Ratio IC50” value stood at 24.54 in experiment [2] and 45.8 in experiment [3].

Consider `NC(=O)CN1CCC2(N3CCCCC3)CC(c3ccc(Cl)cc3)C1C(c1ccc(Cl)cc1)C2` (racemic), for which the IC50 in experiment [1] stood at 990 nM; with L6, 23800 nM; in the experiment on Plasmodium falciparum, 1570 nM. Moreover, the “Ratio IC50” value came to 15.13 in experiment [2] and 24 in experiment [3].

For `CN(C)C12CCN(CCN)C(C(c3ccc(Cl)cc3)C1)C(c1ccc(Cl)cc1)C2` (racemic), the results for the IC50 (in experiment [1]; in the experiment on L6; with Plasmodium falciparum) were 500 nM, 10200 nM and 900 nM, respectively. Besides, the “Ratio IC50” value in experiment [2] is on record as 11.36; in experiment [3], 20.44.

Consider `CCOC(=O)CN1CCC2(N3CCCCC3)CC(c3ccc(Cl)cc3)C1C(c1ccc(Cl)cc1)C2` (racemic), for which the IC50 in experiment [1] was determined as 2190 nM; with L6 it was 13100 nM; with Plasmodium falciparum, 1010 nM. The “Ratio IC50” value in experiment [2] is on record as 12.94; in experiment [3], 5.97.

As for `Clc1ccc(C2CC3(N4CCCCC4)CCNC2C(c2ccc(Cl)c(Cl)c2)C3)cc1Cl` (racemic), the IC50 is 160 nM in experiment [1], 8870 nM in the experiment with L6 and 540 nM with Plasmodium falciparum. The “Ratio IC50” value was determined as 16.43 in experiment [2] and 55.44 in experiment [3].

As for `CN(C)C12CCNC(C(c3cccc4ccccc34)C1)C(c1cccc3ccccc13)C2` (racemic), the figures for the IC50 (in experiment [1]; in the experiment with L6; with Plasmodium falciparum) were 110 nM, 6470 nM and 480 nM, respectively. The entries for the “Ratio IC50” value in experiment [2] and in experiment [3] were 13.48 and 58.82, respectively.

As to `NC(=O)CN1CCC2(N3CCCC3)CC(c3ccc(Cl)cc3)C1C(c1ccc(Cl)cc1)C2` (racemic), the IC50 in experiment [1] came out at 760 nM; in the experiment with L6, 23900 nM; with Plasmodium falciparum it was 830 nM. Besides, the “Ratio IC50” value came out at 28.8 in experiment [2] and 31.45 in experiment [3].

Regarding `Cc1ccc(C2CC3(N(C)C)CCNC2C(c2ccc(C)cc2)C3)cc1` (racemic), the IC50 in experiment [1] came to 120 nM; with L6, 40500 nM; with Plasmodium falciparum, 450 nM. In addition, the “Ratio IC50” value is recorded as 89.91 in experiment [2] and 337.2 in experiment [3].

Regarding `CN(C)C12CCNC(C(c3ccc(F)cc3)C1)C(c1ccc(F)cc1)C2` (racemic), the IC50 in experiment [1] was 440 nM; in the experiment with L6, 186000 nM; in the experiment with Plasmodium falciparum, 890 nM. The “Ratio IC50” value worked out at 209 in experiment [2] and 422.7 in experiment [3].

Take `OCCN1CCC2(N3CCCCC3)CC(c3ccc(Cl)cc3)C1C(c1ccc(Cl)cc1)C2` (racemic): the IC50 was 670 nM in experiment [1], 9690 nM in the experiment on L6 and 700 nM with Plasmodium falciparum. In addition, the entries for the “Ratio IC50” value in experiment [2] and in experiment [3] were 13.84 and 14.46, respectively.

Consider `CN(C)C12CCNC(C(c3ccc(Cl)c(Cl)c3)C1)C(c1ccc(Cl)c(Cl)c1)C2` (racemic), for which the IC50 in experiment [1] worked out at 90 nM; in the experiment on L6, 6440 nM; with Plasmodium falciparum, 400 nM. In addition, the “Ratio IC50” value in experiment [2] was determined as 16.1; in experiment [3] it was 71.56.

Consider `NCCN1CCC2(N3CCCC3)CC(c3ccc(Cl)cc3)C1C(c1ccc(Cl)cc1)C2` (racemic), for which the IC50 in experiment [1] came to 210 nM; in the experiment on L6 it was 4650 nM; in the experiment with Plasmodium falciparum it was 320 nM. Moreover, the figures for the “Ratio IC50” value in experiment [2] and in experiment [3] were 14.53 and 22.14, respectively.

In turn, `C[C@@H]1CC[C@H]2[C@@H](C)C(=O)O[C@@H]3O[C@@]4(C)CC[C@@H]1[C@]32OO4` [ARTEMISININ] showed an IC50 in the experiment on Plasmodium falciparum of 6.4 nM.
